Laboratory results from paper PMC10482691, “LTP induction by structural rather than enzymatic functions of CaMKII” (Nature, 2023).
Several values for one entry are separate records, joined by “and”; a condition that tells them apart may be missing. Equal values may be shown once.

Legend:
Flt3(h) = Flt3(h) (Homo sapiens, UniProt P36888); experiment: Kinase selectivity panel (residual activity at 1 μM); format: biochemical; conditions: inhibitor at 1 μM; read-out: residual kinase activity in % of maximal activity
Chain of Flt3(h) (P36888 27-993): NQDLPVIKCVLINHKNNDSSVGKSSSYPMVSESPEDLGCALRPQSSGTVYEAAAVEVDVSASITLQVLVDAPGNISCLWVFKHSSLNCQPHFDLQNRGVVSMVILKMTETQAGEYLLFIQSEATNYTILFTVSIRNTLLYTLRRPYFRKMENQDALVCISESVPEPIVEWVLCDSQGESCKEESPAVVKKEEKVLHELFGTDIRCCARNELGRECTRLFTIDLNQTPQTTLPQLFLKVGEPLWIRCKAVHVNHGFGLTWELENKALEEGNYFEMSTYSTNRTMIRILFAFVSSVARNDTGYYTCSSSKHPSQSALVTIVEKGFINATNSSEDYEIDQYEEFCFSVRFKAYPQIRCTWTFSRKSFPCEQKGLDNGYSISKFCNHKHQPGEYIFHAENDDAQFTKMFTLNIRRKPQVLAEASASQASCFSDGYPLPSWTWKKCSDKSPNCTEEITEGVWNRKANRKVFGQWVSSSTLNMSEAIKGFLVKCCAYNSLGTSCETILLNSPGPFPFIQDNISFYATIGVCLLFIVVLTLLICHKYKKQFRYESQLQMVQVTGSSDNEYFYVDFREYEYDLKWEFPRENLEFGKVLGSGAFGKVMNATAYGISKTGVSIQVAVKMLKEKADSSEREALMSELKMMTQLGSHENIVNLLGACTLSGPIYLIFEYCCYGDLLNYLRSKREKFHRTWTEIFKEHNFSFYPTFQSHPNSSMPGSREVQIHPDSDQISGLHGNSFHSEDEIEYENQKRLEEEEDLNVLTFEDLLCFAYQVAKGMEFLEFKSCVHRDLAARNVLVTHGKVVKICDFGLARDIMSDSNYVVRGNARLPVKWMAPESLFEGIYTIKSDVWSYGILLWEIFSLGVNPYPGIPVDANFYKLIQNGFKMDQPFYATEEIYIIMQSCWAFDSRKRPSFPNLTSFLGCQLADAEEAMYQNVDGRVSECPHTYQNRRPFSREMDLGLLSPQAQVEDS

GSK3β(h) = GSK3β(h) (Homo sapiens, UniProt P49841); experiment: as above; format: biochemical; conditions: inhibitor at 1 μM; read-out: residual kinase activity in % of maximal activity
Chain of GSK3β(h) (P49841 whole entry): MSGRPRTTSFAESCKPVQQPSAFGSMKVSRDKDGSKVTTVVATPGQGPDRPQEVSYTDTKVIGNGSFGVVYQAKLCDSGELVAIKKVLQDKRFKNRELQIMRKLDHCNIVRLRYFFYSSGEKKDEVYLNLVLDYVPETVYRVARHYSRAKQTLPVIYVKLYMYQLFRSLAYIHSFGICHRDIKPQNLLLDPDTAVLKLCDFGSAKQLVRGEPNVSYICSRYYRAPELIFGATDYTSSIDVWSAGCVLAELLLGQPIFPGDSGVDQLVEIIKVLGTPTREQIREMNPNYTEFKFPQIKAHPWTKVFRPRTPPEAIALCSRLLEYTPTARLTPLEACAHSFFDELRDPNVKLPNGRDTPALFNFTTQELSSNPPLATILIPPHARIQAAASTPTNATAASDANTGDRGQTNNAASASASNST

Aurora-C(h) = Aurora-C(h) (Homo sapiens, UniProt Q9UQB9); experiment: as above; format: biochemical; conditions: inhibitor at 1 μM; read-out: residual kinase activity in % of maximal activity
Chain of Aurora-C(h) (Q9UQB9 whole entry): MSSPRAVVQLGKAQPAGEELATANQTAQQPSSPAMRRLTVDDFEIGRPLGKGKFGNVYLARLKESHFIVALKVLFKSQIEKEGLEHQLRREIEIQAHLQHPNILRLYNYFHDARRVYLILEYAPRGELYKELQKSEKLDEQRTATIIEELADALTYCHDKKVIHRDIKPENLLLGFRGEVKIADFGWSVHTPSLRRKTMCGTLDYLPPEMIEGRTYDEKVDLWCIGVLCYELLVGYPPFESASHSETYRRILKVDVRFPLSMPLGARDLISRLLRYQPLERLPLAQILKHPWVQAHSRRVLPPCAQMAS

Arg(h) = Arg(h) (Homo sapiens, UniProt P42684); experiment: as above; format: biochemical; conditions: inhibitor at 1 μM; read-out: residual kinase activity in % of maximal activity
Chain of Arg(h) (P42684 whole entry): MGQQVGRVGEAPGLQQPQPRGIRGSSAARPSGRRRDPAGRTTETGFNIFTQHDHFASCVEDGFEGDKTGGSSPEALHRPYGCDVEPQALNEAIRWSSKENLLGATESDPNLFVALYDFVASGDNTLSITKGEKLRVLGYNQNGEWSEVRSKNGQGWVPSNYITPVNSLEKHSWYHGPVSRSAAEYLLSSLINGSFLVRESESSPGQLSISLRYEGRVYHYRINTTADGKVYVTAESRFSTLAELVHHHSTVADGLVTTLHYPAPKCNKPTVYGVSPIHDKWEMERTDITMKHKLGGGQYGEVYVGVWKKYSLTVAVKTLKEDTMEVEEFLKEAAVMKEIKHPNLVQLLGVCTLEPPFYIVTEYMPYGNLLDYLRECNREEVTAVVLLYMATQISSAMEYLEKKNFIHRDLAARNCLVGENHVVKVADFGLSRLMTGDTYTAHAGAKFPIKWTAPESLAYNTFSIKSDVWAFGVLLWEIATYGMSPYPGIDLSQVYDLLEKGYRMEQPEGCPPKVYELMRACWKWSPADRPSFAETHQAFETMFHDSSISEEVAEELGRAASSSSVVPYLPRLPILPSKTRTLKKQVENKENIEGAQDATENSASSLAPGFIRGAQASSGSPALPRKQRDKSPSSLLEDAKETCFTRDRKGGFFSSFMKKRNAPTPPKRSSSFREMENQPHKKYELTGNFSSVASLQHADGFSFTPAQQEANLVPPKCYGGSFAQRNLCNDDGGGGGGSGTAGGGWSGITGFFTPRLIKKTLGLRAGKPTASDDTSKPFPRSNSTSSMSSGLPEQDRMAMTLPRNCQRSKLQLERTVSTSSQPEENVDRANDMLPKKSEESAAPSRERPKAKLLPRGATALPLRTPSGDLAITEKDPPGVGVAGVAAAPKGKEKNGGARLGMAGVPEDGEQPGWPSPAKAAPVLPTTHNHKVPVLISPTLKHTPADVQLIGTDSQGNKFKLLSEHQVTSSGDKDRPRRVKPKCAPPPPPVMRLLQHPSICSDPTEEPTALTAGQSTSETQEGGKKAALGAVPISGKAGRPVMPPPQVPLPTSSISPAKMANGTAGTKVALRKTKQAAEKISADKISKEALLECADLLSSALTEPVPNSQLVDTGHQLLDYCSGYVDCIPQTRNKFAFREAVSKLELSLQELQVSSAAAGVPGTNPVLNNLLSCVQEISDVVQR

GSK3α(h) = GSK3α(h) (Homo sapiens, UniProt P49840); experiment: as above; format: biochemical; conditions: inhibitor at 1 μM; read-out: residual kinase activity in % of maximal activity
Chain of GSK3α(h) (P49840 whole entry): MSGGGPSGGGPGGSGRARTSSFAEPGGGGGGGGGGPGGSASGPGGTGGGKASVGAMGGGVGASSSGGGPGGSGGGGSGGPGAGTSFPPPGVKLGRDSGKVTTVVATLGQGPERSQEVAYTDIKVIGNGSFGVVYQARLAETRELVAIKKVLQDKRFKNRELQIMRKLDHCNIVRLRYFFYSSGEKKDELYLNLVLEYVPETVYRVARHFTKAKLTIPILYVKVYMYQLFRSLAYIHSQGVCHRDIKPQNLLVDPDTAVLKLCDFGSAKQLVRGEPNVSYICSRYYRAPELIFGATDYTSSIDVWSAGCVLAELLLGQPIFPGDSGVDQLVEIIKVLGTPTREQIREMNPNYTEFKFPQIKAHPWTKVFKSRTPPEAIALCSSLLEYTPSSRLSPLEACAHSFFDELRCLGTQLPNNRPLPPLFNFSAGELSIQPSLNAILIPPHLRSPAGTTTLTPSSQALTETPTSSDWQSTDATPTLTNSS

Ret(h) = Ret(h) (Homo sapiens, UniProt P07949); experiment: as above; format: biochemical; conditions: inhibitor at 1 μM; read-out: residual kinase activity in % of maximal activity
SGK(h) = SGK(h) (Homo sapiens, UniProt O00141); experiment: as above; format: biochemical; conditions: inhibitor at 1 μM; read-out: residual kinase activity in % of maximal activity
Chain of SGK(h) (O00141 whole entry): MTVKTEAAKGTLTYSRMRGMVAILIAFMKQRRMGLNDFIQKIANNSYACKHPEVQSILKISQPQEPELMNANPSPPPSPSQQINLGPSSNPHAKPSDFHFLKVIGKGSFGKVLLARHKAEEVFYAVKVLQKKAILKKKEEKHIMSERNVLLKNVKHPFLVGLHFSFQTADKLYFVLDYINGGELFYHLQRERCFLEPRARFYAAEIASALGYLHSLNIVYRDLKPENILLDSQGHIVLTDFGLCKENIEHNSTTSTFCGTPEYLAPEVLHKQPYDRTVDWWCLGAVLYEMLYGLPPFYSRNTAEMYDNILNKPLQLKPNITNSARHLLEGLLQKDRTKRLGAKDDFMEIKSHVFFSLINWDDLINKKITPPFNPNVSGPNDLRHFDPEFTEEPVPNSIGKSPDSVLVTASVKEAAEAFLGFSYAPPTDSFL

FGFR1(h) = FGFR1(h) (Homo sapiens, UniProt P11362); experiment: as above; format: biochemical; conditions: inhibitor at 1 μM; read-out: residual kinase activity in % of maximal activity
[1] = test system: GFP–CaMKII F89G in rat hippocampal neurons; experiment: cLTP-induced CaMKII synaptic enrichment in dissociated hippocampal cultures (GFP–CaMKII F89G); format: cell-based; conditions: for CaMKII synaptic enrichment: GFP-CaMKII F89G, individual neurons, sheet 4e
[2] = target: T1, GFP–CaMKII F89G / mCh-GluN2B-c tail in HEK293 cells (Homo sapiens, UniProt Q9UQM7, F89G); experiment: Ionomycin-induced colocalization of GFP–CaMKII F89G and mCherry-2BC in HEK293 cells; format: cell-based; conditions: 10 µM NM-PP1
T1 construct: expressed in transfected cells; host or cells: HEK293
T1 sequence (Q13224 836-1484 S1303A): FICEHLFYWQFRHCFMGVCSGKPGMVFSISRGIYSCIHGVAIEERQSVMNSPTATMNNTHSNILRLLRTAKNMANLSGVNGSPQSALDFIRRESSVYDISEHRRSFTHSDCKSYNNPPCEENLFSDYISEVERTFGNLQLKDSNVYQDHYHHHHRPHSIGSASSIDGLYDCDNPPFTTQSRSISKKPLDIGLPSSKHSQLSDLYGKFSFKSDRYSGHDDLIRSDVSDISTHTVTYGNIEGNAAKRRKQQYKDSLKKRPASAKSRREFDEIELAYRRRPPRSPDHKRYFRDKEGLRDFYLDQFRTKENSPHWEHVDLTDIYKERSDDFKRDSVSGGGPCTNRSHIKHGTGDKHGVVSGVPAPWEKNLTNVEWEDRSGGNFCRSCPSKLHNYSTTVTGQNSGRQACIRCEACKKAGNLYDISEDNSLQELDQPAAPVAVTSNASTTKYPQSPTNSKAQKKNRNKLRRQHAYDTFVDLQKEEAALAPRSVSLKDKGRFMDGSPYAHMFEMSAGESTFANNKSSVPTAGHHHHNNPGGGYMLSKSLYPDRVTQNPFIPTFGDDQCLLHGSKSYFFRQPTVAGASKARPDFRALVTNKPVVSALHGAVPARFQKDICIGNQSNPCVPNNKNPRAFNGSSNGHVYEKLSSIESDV
T1 sequence (Q9UQM7 whole entry F89G): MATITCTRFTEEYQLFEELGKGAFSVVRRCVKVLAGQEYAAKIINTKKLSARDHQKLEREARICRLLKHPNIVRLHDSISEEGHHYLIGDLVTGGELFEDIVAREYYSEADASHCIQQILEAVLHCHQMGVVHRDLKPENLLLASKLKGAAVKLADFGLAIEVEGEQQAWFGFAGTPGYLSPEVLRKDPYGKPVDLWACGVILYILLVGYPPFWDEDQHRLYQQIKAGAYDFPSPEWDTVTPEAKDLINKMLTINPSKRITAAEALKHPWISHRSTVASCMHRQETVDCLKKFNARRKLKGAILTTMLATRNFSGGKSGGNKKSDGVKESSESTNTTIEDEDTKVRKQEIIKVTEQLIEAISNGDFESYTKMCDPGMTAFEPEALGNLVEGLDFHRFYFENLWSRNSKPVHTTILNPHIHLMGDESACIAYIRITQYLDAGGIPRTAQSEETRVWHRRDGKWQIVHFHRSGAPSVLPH

CaMKIIα F89G = CaMKIIα F89G (Homo sapiens, UniProt Q9UQM7, F89G); experiment: In vitro kinase reactions with CaMKII F89G ± NM-PP1 (pT286, pS831); format: biochemical; conditions: 10 µM NM-PP1
Procedure: Fig. 4 The CaMKII mutation F89G impairs ATP binding but binds the ATP-competitive inhibitor NM-PP1 that restores GluN2B binding and LTP-induced synaptic translocation. Data are presented as mean values ± s.e.m. a, Schematic of the pharmacogenetic method of ATP-competitive CaMKII inhibition; enlargement of the CaMKII ATP-binding pocket by the F89G mutation allows for selective binding of the ATP-competitive inhibitor NM-PP1. b, Immunoblots of in vitro kinase reactions at 30 °C including GFP–CaMKII WT, K42M and F89G with GST–GluA1-c tail. […] Correlation indices were measured before and after Ionomycin-induced colocalization of GFP–CaMKII (WT, K42M and F89G) with mCherry-2BC, represented as change in the correlation index (vehicle: n = 22, 17, 12 cells; NM-PP1: n = 20, 24, 13 cells; one-way ANOVA, Tukey’s multiple comparisons test). […] CaMKII synaptic enrichment was measured before and after cLTP (n = 13, 14, 14 cells; RM two-way ANOVA with Šídák’s multiple comparisons test). […] CaMKII synaptic enrichment was measured before and after cLTP (n = 7, 6, 7 cells; RM two-way ANOVA with Šídák’s multiple comparisons test). […]
CaMKII-mediated phosphorylation of GluA1 S831 or GluN2B S1303 was measured by in vitro kinase reaction with a purified GST–GluA1 C-terminal tail or GST-GluN2B C-terminal tail. […]

| SMILES | remaining activity at 1 µM (Flt3(h)) [%] | remaining activity at 1 µM (GSK3β(h)) [%] | remaining activity at 1 µM (Aurora-C(h)) [%] | remaining activity at 1 µM (Arg(h)) [%] | remaining activity at 1 µM (GSK3α(h)) [%] | remaining activity at 1 µM (Ret(h)) [%] | remaining activity at 1 µM (SGK(h)) [%] | remaining activity at 1 µM (FGFR1(h)) [%] | effect on impaired LTP-induced synaptic CaMKII localization ([1]; F89G mutant, 10 μM NM-PP1) | CaMKII synaptic enrichment ([1]; NMPP1, before cLTP) | CaMKII synaptic enrichment ([1]; after cLTP in NMPP1) | effect on binding of CaMKII F89G to GluN2B in HEK cells [2] | effect on residual activity of CaMKII F89G (CaMKIIα F89G) |
| --- | --- | --- | --- | --- | --- | --- | --- | --- | --- | --- | --- | --- | --- |
| NCCNc1cccc(-c2ccnc3[nH]c4ccccc4c23)c1 [AS283] | 3 | 87 | 63 | 96 | 82 | 44 | 86 | 58 |  |  |  |  |  |
| CC(C)(C)n1nc(Cc2cccc3ccccc23)c2c(N)ncnc21 [NM-PP1] |  |  |  |  |  |  |  |  | rescued | 1.457 and 2.177 and 1.336 and 1.561 and 0.9177 and 1.552 | 2.238 and 2.292 and 2.101 and 2.038 and 1.685 and 2.186 | fully enabled binding | further reduced |
